From US6747027B1, “Thiol sulfonamide metalloprotease inhibitors” (Pharmacia Corporation, priority 1996, dated 2004) come the findings set out here.

One test deals with T1, recombinant human MMP-13 (Homo sapiens, UniProt P45452).
T1 construct: made in house
The test can be described thus: In vitro metalloprotease inhibition, fluorogenic peptide assay (MMP-13). It is filed as biochemical. As to conditions: recombinant human MMP-13, APMA activated; fluorogenic MCA peptide substrate 4 uM; pH 7.5, room temperature. An outline of the steps: (§1)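 APMA-activated recombinant human MMP-13 (baculovirus-expressed) and MMP-1 (HT-1080-expressed) preincubated with inhibitor 10 min at room temperature in Tris/NaCl/CaCl2 buffer, pH 7.5, 1% DMSO final. MCA-PLGL-Dpa-AR-NH2 substrate at 4 uM final; cleavage read as fluorescence (ex 328/em 415 nm). IC50 from fluorescence reduction versus inhibitor concentration.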

Another test addresses T2, recombinant human MMP-1 (Homo sapiens, UniProt P03956).
T2 construct: made in house; host or cells: transfected HT-1080 cells (provided by Dr. Howard Welgus, Washington University)
T2 sequence (P03956 100-469): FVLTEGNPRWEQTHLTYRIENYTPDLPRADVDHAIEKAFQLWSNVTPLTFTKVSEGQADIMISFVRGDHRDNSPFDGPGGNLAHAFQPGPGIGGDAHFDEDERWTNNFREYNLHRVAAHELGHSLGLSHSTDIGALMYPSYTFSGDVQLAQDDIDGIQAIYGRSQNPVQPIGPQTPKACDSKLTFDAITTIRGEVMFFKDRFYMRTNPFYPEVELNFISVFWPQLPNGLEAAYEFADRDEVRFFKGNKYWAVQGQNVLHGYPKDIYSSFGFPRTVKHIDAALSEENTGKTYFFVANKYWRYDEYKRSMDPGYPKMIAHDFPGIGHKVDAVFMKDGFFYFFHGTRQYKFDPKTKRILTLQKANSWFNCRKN
The test can be described thus: In vitro metalloprotease inhibition, fluorogenic peptide assay (MMP-1). It is filed as biochemical. As to conditions: recombinant human MMP-1, APMA activated; fluorogenic MCA peptide substrate 4 uM; pH 7.5, room temperature. An outline of the steps: as §1

For test [1], the system named is angiogenesis in the cornea of a mouse. The test can be described thus: In vivo angiogenesis assay (corneal micropocket assay, bFGF pellet). As to conditions: C57Bl/6 female mouse, 50 mg/kg bid, po, scored at day five. Here is the method:
The study of angiogenesis depends on a reliable and reproducible model for the stimulation and inhibition of a neovascular response. The corneal micropocket assay provides such a model of angiogenesis in the cornea of a mouse. See, A Model of Angiogenesis in the Mouse Cornea; Kenyon, B M, et al., Investigative Ophthalmology & Visual Science, July 1996, Vol. 37, No. 8.
In this assay, uniformly sized Hydron™ pellets containing bFGF and sucralfate were prepared and surgically implanted into the stroma mouse cornea adjacent to the temporal limbus. […]
Mice were dosed on a daily basis for the duration of the assay. […] At day five, the degree of angiogenic inhibition was scored by viewing the neovascular progression with a slit lamp microscope.
The mice were anesthetized and the studied eye was once again proptosed. The maximum vessel length of neovascularization, extending from the limbal vascular plexus toward the pellet was measured. In addition, the contiguous circumferential zone of neovascularization was measured as clock hours, where 30 degrees of arc equals 1 clock hour. The area of angiogenesis was calculated as [formula]
where the vessel length is measured in millimeters.
The studied mice were thereafter compared to control mice and the difference in the area of neovascularization was recorded.

A value given as a limit tells only on which side of the number the result lay.

`NC(=O)[C@H](CS)N(CCN1CCOCC1)S(=O)(=O)c1ccc(NC(=O)c2ccccc2)cc1` [Example 218, N-(4-benzoylamino)phenylsulfonyl-N-(4-(morpholino-ethyl))-L-cysteine amide]: the IC50 on recombinant human MMP-13 is 1.1 nM; on recombinant human MMP-1 it was greater than 10000 nM. Further, the “inhibition of area of neovascularization versus control mice” value in test [1] is reported as 37%.

For the compound “N-(2-mercapto-1R-methylethyl)-4-n-pentyl)benzenesulfonamide [Example 71]”, the values for the concentration for half-maximal inhibition (IC50) at recombinant human MMP-13 and on recombinant human MMP-1 were 40 nM and greater than 10000 nM, respectively.

Regarding “N-(2-mercapto-1R-methylethyl)-4-n-propyl)benzenesulfonamide [Example 70]”, the IC50 was 440 nM at recombinant human MMP-13 and greater than 10000 nM on recombinant human MMP-1.

What is called IC50 is the concentration at which inhibition is half-maximal.
